Values of other authors, collected in US20110104137A1, “ADJUNCTS AND COMPLEXES FOR IMPROVING HMG-CoA REDUCTASE INHIBITOR (STATIN) AND SELECTIVE PHOSPHODIESTERASE 5 INHIBITOR THERAPY” (ChronoRX LLC, an Alaska Limited Liability Company, priority 2009, published 2011).

Experiments:
[1] = in vivo
[2] = oral L-CAR; placebo group 26.0%
Lp(a) = settings: patients with otherwise elevated levels
[3] = atorvastatin 80 mg versus pravastatin 40 mg, after ACS
[4] = 12 months, IVUS
PGI2 = settings: administered therapeutic dose, humans
CETP = molecular target: T1, CETP (Homo sapiens, UniProt P11597)
T1 construct: Circulating CETP mediates the transfer of cholesteryl esters from HDL to LDL; host or cells: patients (endogenous plasma CETP, in vivo)
T1 sequence (P11597 18-493): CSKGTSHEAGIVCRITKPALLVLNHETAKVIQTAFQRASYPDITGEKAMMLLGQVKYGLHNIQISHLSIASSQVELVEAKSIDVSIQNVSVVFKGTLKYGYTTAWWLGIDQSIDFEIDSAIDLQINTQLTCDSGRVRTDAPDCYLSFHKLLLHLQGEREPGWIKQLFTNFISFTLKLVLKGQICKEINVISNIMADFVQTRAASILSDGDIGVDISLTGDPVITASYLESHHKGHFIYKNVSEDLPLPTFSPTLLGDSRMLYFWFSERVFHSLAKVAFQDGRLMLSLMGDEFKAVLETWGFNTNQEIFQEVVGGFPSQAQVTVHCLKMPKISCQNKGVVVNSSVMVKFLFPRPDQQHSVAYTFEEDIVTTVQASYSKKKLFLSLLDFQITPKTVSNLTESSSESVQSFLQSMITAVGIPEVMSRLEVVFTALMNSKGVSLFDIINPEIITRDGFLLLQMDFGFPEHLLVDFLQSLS

NF-kappaB = settings: in vitro and ex-vivo
[5] = no hyperlipidemia, elevated high-sensitivity CRP
[6] = rosuvastatin 40 mg/d
ADMA = settings: in vivo
[7] = monotherapy and in combination with a statin

In the case of `CC[C@H](C)C(=O)O[C@H]1C[C@@H](C)C=C2C=C[C@H](C)[C@H](CC[C@@H]3C[C@@H](O)CC(=O)O3)[C@H]21` [lovastatin], the interaction with warfarin [1] is listed as “potentiate warfarin”.

For `CC(=O)O[C@H](CC(=O)[O-])C[N+](C)(C)C` [L-CAR, Acetyl-L-carnitine], the “total cardiac events, including cardiac death and nonfatal infarction” value [2] is given as 15.6% and the “plasma Lp(a)” value (Lp(a)) is given as “reduce plasma Lp(a)”.

In the case of `CC(C)c1c(C(=O)Nc2ccccc2)c(-c2ccccc2)c(-c2ccc(F)cc2)n1CC[C@@H](O)C[C@@H](O)CC(=O)O` [atorvastatin], the “rate of hospitalization for HF” value [3] is listed as “significantly reduced the rate of hospitalization for HF”, the interaction with warfarin [1] is listed as “potentiate warfarin” and the “progression of mean plaque volume or thickness” value ([4]; 131 patients, placebo 9.6) is listed as 1.2 mm^3. The “hyperechogenicity of the plaque” value ([4]; compared to placebo) was “increased the hyperechogenicity of the plaque” and the PGI2 signaling (PGI2) was “does not significantly decrease PGI2 signaling”.

In the case of `CCOC(=O)N1c2ccc(C(F)(F)F)cc2[C@@H](N(Cc2cc(C(F)(F)F)cc(C(F)(F)F)c2)C(=O)OC)C[C@H]1CC` [torcetrapib], the mortality (CETP; mean follow-up of 550 days, cardiovascular and noncardiovascular causes) is given as “significant increase in mortality”, the HDL-CHOL levels (CETP; [7]) is given as “markedly increased HDL-CHOL levels” and the LDL-CHOL (CETP; [7]) is given as “reduced LDL-CHOL”. For the same compound, the “mean particle size of HDL and LDL” value (CETP; [7]) was “increased the mean particle size of both HDL and of LDL”.

In the case of `O=C(O)CCCCC1CCSS1` (stereo not shown) [LA, 1,2-dithiolane-3-pentanoic acid], the NF-kappaB activation (NF-kappaB) is given as “inhibits NF-kappaB activation”.

In the case of `CC(C)c1nc(N(C)S(C)(=O)=O)nc(-c2ccc(F)cc2)c1/C=C/[C@@H](O)C[C@@H](O)CC(=O)O` [rosuvastatin], the “incidence of major cardiovascular events” value [5] is listed as “significantly reduced the incidence of major cardiovascular events”, the “average LDL achieved” value ([6]; 349 patients) is listed as 60.8 mg/dL and the “increase in HDL” value ([6]; 349 patients) is listed as 14.7%. For the same compound, the regression of atherosclerosis ([6]; intravascular ultrasound) was “significant regression of atherosclerosis”, the interaction with warfarin [1] was “potentiate warfarin” and the “effect on plasma ADMA” value (ADMA) was “decrease in plasma ADMA”.
